Data reported in patent US8916499B2, “Herbicidal compositions comprising 4-amino-3-chloro-5-fluoro-6-(4-chloro-2-fluoro-3-methoxyphenyl) pyridine-2-carboxylic acid or a derivative thereof and a protoporphyrinogen oxidase inhibitor” (Dow AgroSciences LLC, priority 2012, dated 2014).
Several values for one entry are separate records, joined by “and”; a condition that tells them apart may be missing. Identical values can stand only once.

What was measured:
LEFCH [1] = test: Postemergence foliar-applied weed control, direct seeded rice, greenhouse (Example I); format: in vivo, Leptochloa chinensis (L.) Nees
ECHOR = test: In-water applied weed control, transplanted paddy rice, greenhouse (Example II); format: in vivo, Echinochloa oryzoides (Ard.) Fritsch; settings: for Visual Weed Control (%) - 19 DAA ECHOR Obs: g ae/ha Compound A Acid+g ai/ha carfentrazone-ethyl: r28 42.4+0, r29 0+215, r30 42.4+215
IPOHE = test: Postemergence foliar-applied weed control, direct seeded rice, greenhouse (Example I); format: in vivo, Ipomoea hederacea Jacq.
ECHCG [2] = test: In-water applied weed control, transplanted paddy rice, greenhouse (Example II); format: in vivo, Echinochloa crus-galli (L.) P. Beauv.
SCPJU = test: as above; format: in vivo, Schoenoplectus juncoides (Roxb.) Palla
CYPRO = test: as above; format: in vivo, Cyperus rotundus L.
FIMMI = test: as above; format: in vivo, Fimbristylis miliacea (L.) Vahl; settings: 8.75 g ae/ha alone
LEFCH [3] = test: as above; format: in vivo, Leptochloa chinensis (L.) Nees
ECHCO = test: Postemergence foliar-applied weed control, direct seeded rice, greenhouse (Example I); format: in vivo, Echinochloa colona (L.) Link
BRAPP = test: as above; format: in vivo, Brachiaria platyphylla (Griseb.) Nash; settings: g ae/ha Compound A Acid+g ai/ha pyraclonil: r11 4.38+0, r12 0+33.75, r13 0+67.5, r14 0+135, r15 4.38+33.75, r16 4.38+67.5, r17 4.38+135
CYPIR = test: as above; format: in vivo, Cyperus iria L.
ISCRU = test: as above; format: in vivo, Ischaemum rugosum Salisb.
ECHCG [4] = test: as above; format: in vivo, Echinochloa crusgalli (L.) Beauv.
DIGSA = test: as above; format: in vivo, Digitaria sanguinalis (L.) Scop.; settings: g ae/ha Compound A Acid+g ai/ha carfentrazone-ethyl: r11 4.38+0, r12 8.75+0, r13 17.5+0, r14 0+14, r15 4.38+14, r16 8.75+14, r17 17.5+14
CYPES = test: as above; format: in vivo, Cyperus esculentus L.; settings: g ae/ha Compound A Acid+g ai/ha carfentrazone-ethyl: r27 4.38+0, r28 8.75+0, r29 0+7, r30 0+14, r31 4.38+7, r32 8.75+7, r33 4.38+14, r34 8.75+14
[5] = g ae/ha Compound A Acid+g ai/ha carfentrazone-ethyl: r39 19.4+0, r40 0+28, r41 19.4+28
[6] = g ae/ha Compound A Acid+g ai/ha pyraclonil: r53 35+0, r54 0+270, r55 35+270
[7] = g ae/ha Compound A Acid+g ai/ha saflufenacil: r24 4.38+0, r25 0+5, r26 0+10, r27 0+20, r28 4.38+5, r29 4.38+10, r30 4.38+20
[8] = g ae/ha Compound A Benzyl Ester+g ai/ha carfentrazone-ethyl: r11 8.75+0, r12 0+3.5, r13 0+7, r14 0+14, r15 8.75+3.5, r16 8.75+7, r17 8.75+14

COc1c(Cl)ccc(-c2nc(C(=O)O)c(Cl)c(N)c2F)c1F [Compound A Acid, 4-amino-3-chloro-5-fluoro-6-(4-chloro-2-fluoro-3-methoxy-phenyl)pyridine-2-carboxylic acid]
Visual Weed Control (%) - 19 DAA LEFCH Obs (LEFCH [1]; [5]): 5%
Visual Weed Control (%) - 19 DAA ECHOR Obs (ECHOR): 15%
Visual Weed Control (%) - 20 DAA IPOHE Obs (IPOHE; first section, g ae/ha Compound A Acid+g ai/ha oxadiazon: r12 8.75+0, r13 0+31.25, r14 0+62.5, r15 0+125, r16 8.75+31.25, r17 8.75+62.5, r18 8.75+125): 10%
Visual Weed Control (%) - 21 DAA IPOHE Obs (IPOHE; [6]): 45%
Visual Weed Control (%) - 21 DAA ECHCG Obs (ECHCG [2]; 8.75 g ae/ha alone): 15%
Visual Weed Control (%) - 20 DAA ECHCG Obs (ECHCG [2]; 17.5 g ae/ha alone): 50%
Visual Weed Control (%) - 21 DAA ECHCG Obs (ECHCG [2]; 17.5 g ae/ha alone): 20%
Visual Weed Control (%) - 20 DAA ECHCG Obs (ECHCG [2]; 35 g ae/ha alone): 95%
Visual Weed Control (%) - 21 DAA ECHCG Obs (ECHCG [2]; 35 g ae/ha alone): 95%
Visual Weed Control (%) - 21 DAA SCPJU Obs (SCPJU; 8.75 g ae/ha alone): 40%
Visual Weed Control (%) - 21 DAA SCPJU Obs (SCPJU; 17.5 g ae/ha alone): 60%
Visual Weed Control (%) - 21 DAA SCPJU Obs (SCPJU; 35 g ae/ha alone): 95%
Visual Weed Control (%) - 20 DAA CYPRO Obs (CYPRO; 8.75 g ae/ha alone): 0%
Visual Weed Control (%) - 20 DAA CYPRO Obs (CYPRO; 17.5 g ae/ha alone): 20%
Visual Weed Control (%) - 20 DAA CYPRO Obs (CYPRO; 35 g ae/ha alone): 80%
Visual Weed Control (%) - 21 DAA CYPRO Obs (CYPRO; 35 g ae/ha alone): 70%
Visual Weed Control (%) - 21 DAA FIMMI Obs (FIMMI): 0%
Visual Weed Control (%) - 20 DAA LEFCH Obs (LEFCH [3]; 17.5 g ae/ha alone): 0%
Visual Weed Control (%) - 20 DAA LEFCH Obs (LEFCH [3]; 35 g ae/ha alone): 30%
Visual Weed Control (%) - 21 DAA LEFCH Obs (LEFCH [3]; 35 g ae/ha alone): 5%
Visual Weed Control (%) - 21 DAA LEFCH Obs (LEFCH [3]; 70 g ae/ha alone): 23%
Visual Weed Control (%) - 20 DAA ECHCO Obs (ECHCO; [7]): 40%
Visual Weed Control (%) - 20 DAA BRAPP Obs (BRAPP): 10%
Visual Weed Control (%) - 20 DAA CYPIR Obs (CYPIR; [7]): 30%

C#CCN(C)c1c(C#N)cnn1-c1nn2c(c1Cl)CCCC2 [Pyraclonil, 1-(3-chloro-4,5,6,7-tetrahydropyrazolo[1,5-a]pyridin-2-yl)-5-(methyl-2-propynylamino)-1H-pyrazole-4-carbonitrile, reference compound]
Visual Weed Control (%) - 21 DAA ISCRU Obs (ISCRU; g ae/ha Compound A Benzyl Ester+g ai/ha pyraclonil: r37 8+0, r38 16+0, r39 0+67.5, r40 0+135, r41 0+270, r42 8+67.5, r43 16+67.5, r44 8+135, r45 16+135, r46 8+270, r47 16+270): 0%
Visual Weed Control (%) - 20 DAA ECHOR Obs (ECHOR; g ae/ha Compound A Benzyl Ester+g ai/ha pyraclonil: r11 4.38+0, r12 8.75+0, r13 17.5+0, r14 0+45, r15 4.38+45, r16 8.75+45, r17 17.5+45): 40%
Visual Weed Control (%) - 21 DAA IPOHE Obs (IPOHE; [6]): 45%
Visual Weed Control (%) - 21 DAA IPOHE Obs (IPOHE; g ae/ha Compound A Benzyl Ester+g ai/ha pyraclonil: r27 17.5+0, r28 35+0, r29 0+270, r30 17.5+270, r31 35+270): 45%
Visual Weed Control (%) - 20 DAA ECHCG Obs (ECHCG [2]; g ae/ha Compound A Acid+g ai/ha pyraclonil: r11 8.75+0, r12 17.5+0, r13 0+45, r14 8.75+45, r15 17.5+45): 0%
Visual Weed Control (%) - 20 DAA ECHCG Obs (ECHCG [4]; g ae/ha Compound A Acid+g ai/ha pyraclonil: r24 4.38+0, r25 8.75+0, r26 0+33.75, r27 0+67.5, r28 0+135, r29 4.38+33.75, r30 8.75+33.75, r31 4.38+67.5, r32 8.75+67.5, r33 4.38+135, r34 8.75+135): 0%
Visual Weed Control (%) - 21 DAA ECHCG Obs (ECHCG [4]; g ae/ha Compound A Acid+g ai/ha pyraclonil: r44 17.5+0, r45 35+0, r46 0+270, r47 17.5+270, r48 35+270): 0%
Visual Weed Control (%) - 20 DAA CYPRO Obs (CYPRO; g ae/ha Compound A Benzyl Ester+g ai/ha pyraclonil: r19 4.38+0, r20 8.75+0, r21 0+45, r22 0+90, r23 4.38+45, r24 8.75+45, r25 4.38+90, r26 8.75+90): 0%
Visual Weed Control (%) - 20 DAA BRAPP Obs (BRAPP): 0%

CCOC(=O)C(Cl)Cc1cc(-n2nc(C)n(C(F)F)c2=O)c(F)cc1Cl (stereo not drawn) [Carfentrazone-ethyl, ethyl α,2-dichloro-5-[4-(difluoromethyl)-4,5-dihydro-3-methyl-5-oxo-1H-1,2,4-triazol-1-yl]-4-fluorobenzenepropanoate, reference compound]
Visual Weed Control (%) - 19 DAA LEFCH Obs (LEFCH [1]; [5]): 10%
Visual Weed Control (%) - 19 DAA LEFCH Obs (LEFCH [1]; g ae/ha Compound A n-Butyl Ester+g ai/ha carfentrazone-ethyl: r11 16+0, r12 0+28, r13 16+28): 10%
Visual Weed Control (%) - 21 DAA DIGSA Obs (DIGSA): 0%
Visual Weed Control (%) - 19 DAA ECHOR Obs (ECHOR): 65%
Visual Weed Control (%) - 21 DAA CYPES Obs (CYPES): 0%
Visual Weed Control (%) - 21 DAA ECHCG Obs (ECHCG [4]; g ae/ha Compound A Acid+g ai/ha carfentrazone-ethyl: r11 4.38+0, r12 8.75+0, r13 17.5+0, r14 0+14, r15 4.38+14, r16 8.75+14, r17 17.5+14): 10%
Visual Weed Control (%) - 21 DAA ECHCG Obs (ECHCG [4]; [8]): 0% and 10%
Visual Weed Control (%) - 21 DAA LEFCH Obs (LEFCH [3]; g ae/ha Compound A Benzyl Ester+g ai/ha carfentrazone-ethyl: r11 8.75+0, r12 17.5+0, r13 35+0, r14 0+28, r15 8.75+28, r16 17.5+28, r17 35+28): 10%
Visual Weed Control (%) - 21 DAA CYPIR Obs (CYPIR; [8]): 0%

CC(C)N(C)S(=O)(=O)NC(=O)c1cc(-n2c(=O)cc(C(F)(F)F)n(C)c2=O)c(F)cc1Cl [Saflufenacil, 2-chloro-5-[3,6-dihydro-3-methyl-2,6-dioxo-4-(trifluoromethyl)-1(2H)-pyrimidinyl]-4-fluoro-N-[[methyl(1-methylethyl)amino]sulfonyl]benzamide, reference compound]
Visual Weed Control (%) - 20 DAA LEFCH Obs (LEFCH [1]; g ae/ha Compound A Acid+g ai/ha saflufenacil: r11 4.38+0, r12 8.75+0, r13 17.5+0, r14 0+5, r15 4.38+5, r16 8.75+5, r17 17.5+5): 0%
Visual Weed Control (%) - 20 DAA LEFCH Obs (LEFCH [1]; g ae/ha Compound A Benzyl Ester+g ai/ha saflufenacil: r26 8.75+0, r27 17.5+0, r28 0+5, r29 0+10, r30 8.75+5, r31 17.5+5, r32 8.75+10, r33 17.5+10): 0%
Visual Weed Control (%) - 21 DAA ISCRU Obs (ISCRU; g ae/ha Compound A Benzyl Ester+g ai/ha saflufenacil: r49 8+0, r50 16+0, r51 0+10, r52 0+20, r53 8+10, r54 16+10, r55 8+20, r56 16+20): 0%
Visual Weed Control (%) - 20 DAA ECHOR Obs (ECHOR; 10 g ai/ha alone): 0%
Visual Weed Control (%) - 20 DAA ECHOR Obs (ECHOR; 20 g ai/ha alone): 0%
Visual Weed Control (%) - 20 DAA ECHCG Obs (ECHCG [2]; 10 g ai/ha alone): 0%
Visual Weed Control (%) - 20 DAA ECHCG Obs (ECHCG [2]; 20 g ai/ha alone): 10%
Visual Weed Control (%) - 20 DAA CYPRO Obs (CYPRO; 10 g ai/ha alone): 0%
Visual Weed Control (%) - 20 DAA LEFCH Obs (LEFCH [3]; 10 g ai/ha alone): 0%
Visual Weed Control (%) - 20 DAA LEFCH Obs (LEFCH [3]; 20 g ai/ha alone): 0%
Visual Weed Control (%) - 21 DAA LEFCH Obs (LEFCH [3]; 40 g ai/ha alone): 5%
Visual Weed Control (%) - 20 DAA ECHCO Obs (ECHCO; g ae/ha Compound A Benzyl Ester+g ai/ha saflufenacil: r14 4.38+0, r15 8.75+0, r16 0+10, r17 0+20, r18 4.38+10, r19 8.75+10, r20 4.38+20, r21 8.75+20): 40%
